Results on 26 compounds are retold here after patent US20040096465A1, “Novel receptors for $1(helicobater pyroli) and use thereof” (priority 2001, published 2004).

Entries after “also recorded” stand apart in the source; their conditions may differ.

The subject of test [1] is Helicobacter pylori. The test is described as follows: TLC bacterial overlay assay with 35S-labeled Helicobacter pylori. Type of test: binding. The conditions noted are these: for binding activity of neoglycolipid with regard to Helicobacter pylori: oligosaccharide reductively aminated with 4-hexadecylaniline (HDA); for binding of Helicobacter pylori to the glycosphingolipid on TLC plates: overlay with 35S-labeled bacteria, autoradiography, visual evaluation; for binding of Helicobacter pylori strain 032 to purified glycosphingolipids (FIGS. 7A and 7B): 4 μg per lane, autoradiography 72 h; for lowest amount of glycolipid giving a positive response on TLC plates: dilution series, semi-quantitative, evaluated visually, pentaglycosylceramide mean of 7 experiments; for binding of Helicobacter pylori strain 032 to purified glycosphingolipids (FIGS. 7A and 7B) / binding frequency: strain 032; for binding frequency: total number of plates about 100.

Test [2] concerns Helicobacter pylori binding to human gastrointestinal cell lines. As to conditions: Simon et al.; cited from earlier work.
Test [3] has as its system Helicobacter pylori. As to conditions: Mysore et al.; cited from earlier work.

For the compound `CCCCCCCCCCCCCCCCc1ccc(NC[C@H](O)[C@@H](O)[C@H](O[C@@H]2O[C@H](CO)[C@H](O)[C@H](O[C@@H]3O[C@H](CO)[C@@H](O[C@@H]4O[C@H](CO)[C@H](O)[C@H](O[C@@H]5O[C@H](CO)[C@@H](O)[C@H](O)[C@H]5NC(C)=O)[C@H]4O)[C@H](O)[C@H]3NC(C)=O)[C@H]2O)[C@H](O)CO)cc1` [GlcNAcβ3Galβ4GlcNAcβ3Galβ4Glc(red)-HDA], in test [1], the “binding activity of neoglycolipid with regard to Helicobacter pylori” value (“binding activity of neoglycolipid” for short) is recorded as “clear binding activity”.

`CC(=O)N[C@H]1[C@H](OC[C@H]2OC(O)[C@H](O)[C@@H](O)[C@H]2O)O[C@H](CO)[C@@H](O[C@@H]2O[C@H](CO)[C@H](O)[C@H](O[C@@H]3O[C@H](CO)[C@@H](O)[C@H](O)[C@H]3NC(C)=O)[C@H]2O)[C@@H]1O` (stereo partly drawn) [GlcNAcβ3Galβ4GlcNAcβ6Gal]: the “binding activity of neoglycolipid” value in test [1] is on record as “some binding activity”.

Consider Fucα2Galβ4GlcNAcβ3Galβ4Glcβ1Cer [H5-2], for which the “binding of Helicobacter pylori to the glycosphingolipid on TLC plates” value (“binding of Helicobacter pylori … on TLC plates” below) in test [1] was “absence of binding”; in test [1] (listed as HS-2), “inactive”.

For the compound GalNAcα3Galβ4GlcNAcβ3Galβ4GlcβCer, the “binding of Helicobacter pylori … on TLC plates” value in test [1] is “bind Helicobacter pylori”; in test [1] (listed as GalNAcα3 Galβ4GlcNAcβ3Galβ4GlcβCer), “binding was also found”.

For the compound “GalNAcβ3Galβ3Galβ4GlcNAcβ3Galβ4Glcβ3Cer [GalNAcβ3-B5]”, the “binding of Helicobacter pylori … on TLC plates” value in test [1] is listed as “non-binding”; in test [1] (listed as GalNAcβ3Galβ3Galβ4GlcNAcβ3Galβ4Glcβ3Cer) it was “did not appear to bind”; in test [1] (listed as no. 25) it was “complete loss of binding”.

On to GalNAcβ3Galβ4GlcNAcβ3Galβ4GlcβCer, for which the “binding of Helicobacter pylori … on TLC plates” value was “bind Helicobacter pylori” in test [1] and “binding” in test [1] (listed as x2 GSL). Moreover, the “binding of Helicobacter pylori strain 032 to purified glycosphingolipids (FIGS. 7A and 7B)” value (“binding … (FIGS. 7A and 7B)” below) in test [1] is given as “binding was also found”.

On to “Galα3(Fucα2)Galβ4GlcNAcβ3Galβ4Glcβ1Cer [B6-2]”, for which the “binding of Helicobacter pylori … on TLC plates” value in test [1] is “non-binding; also recorded: inactive”; in test [1] (listed as Galα3(Fucα2)Galβ4GlcNAcβ3Galβ4Glcβ3Cer) it was “non-binding”.

For the compound Galα3Galβ4GlcNAcβ3Galβ4Glc(red)-HDA, the “binding activity of neoglycolipid” value in test [1] was “clear binding activity”.

On to “Galα3Galβ4GlcNAcβ3Galβ4GlcNAcβ3Galβ4GlcβCer”, for which the results for the “binding of Helicobacter pylori … on TLC plates” value in test [1] and in test [1] (listed as no. 28) were “higher activity” and “observed binding”, respectively.

As to Galα3Galβ4GlcNAcβ3Galβ4GlcβCer, the “binding of Helicobacter pylori … on TLC plates” value in test [1] is on record as “bind Helicobacter pylori”; in test [1] (listed as B5), “binding”; in test [1] (listed as B5 glycosphingolipid) it was “equally active”. In addition, in test [1], the “binding … (FIGS. 7A and 7B)” value is listed as “binding-active”.

Regarding Galα3Galβ4GlcNβ3Galβ4GlcβCer, the results for the “binding of Helicobacter pylori … on TLC plates” value in test [1], in test [1] (listed as Galα3Galβ4GlcNH2βGalβ4GlcβCer) and in test [1] (listed as no. 14) were “not binding”, “non-binding” and “loss of bacterial binding”, respectively.

“Galβ4GlcNAcβ3(Galβ4GlcNAcβ6)Galβ4GlcβCer”: the “binding of Helicobacter pylori … on TLC plates” value in test [1] is recorded as “destroyed”; in test [1] (listed as glycosphingolipid from bovine buttermilk), “non-binding”.

Regarding Galβ4GlcNAcβ3Galβ4GlcNAcβ3Galβ4GlcβCer, in test [1], the “lowest amount of glycolipid giving a positive response on TLC plates” value (“lowest amount” for short) is recorded as around 0.2 nmol/spot. For the same compound, the “binding of Helicobacter pylori … on TLC plates” value in test [1] is on record as “weaker binding; also recorded: weaker activity”; in test [1] (listed as Galβ4GlcNAcβ3Galβ4-GlcNAcβ3Galβ4GlcβCer), “binding-active; also recorded: reduced affinity”; in test [1] (listed as hexaglycosylceramides) it was “displayed binding activity”. In test [1], this compound displayed a binding frequency of around 90%.

For the compound Galβ4GlcNAcβ3Galβ4GlcβCer, in test [1], the “lowest amount” value is around 0.3 nmol/spot; the “binding of Helicobacter pylori … on TLC plates” value is “binding is weaker”; the “binding … (FIGS. 7A and 7B)” value is given as “binding”. The “binding of Helicobacter pylori … on TLC plates” value in test [1] (listed as tetraglycosylceramides) is reported as “displayed binding activity”.

Consider Galβ4GlcNβ3Galβ4GlcβCer, for which the “binding of Helicobacter pylori … on TLC plates” value in test [1] is “not binding”; in test [1] (listed as no. 6), “loss of bacterial binding”.

Turning to “Glc(A-methylamide)β3Galβ4GlcNAcβ3Galβ4GlcβCer”, the “binding of Helicobacter pylori … on TLC plates” value in test [1] is “very strong binding”.

Regarding GlcAβ3Galβ4GlcNAcβ3Galβ4GlcβCer, the “binding of Helicobacter pylori … on TLC plates” value in test [1] was “binding active”.

As for GlcNAcβ3Galβ4GlcNAc(red)-HDA, in test [1], the “binding activity of neoglycolipid” value is “weakly binding or inactive”.

GlcNAcβ3Galβ4GlcNAcβ3Galβ4GlcβCer: in test [1], the “lowest amount” value is 0.039 nmol/spot. Moreover, the “binding of Helicobacter pylori … on TLC plates” value in test [1] is given as “binding-active; also recorded: high affinity”; in test [1] (listed as five-sugar glycosphingolipid from rabbit thymus), “equally active”; in test [1] (listed as pentaglycosylceramide), “strong activity; also recorded: highly active; also recorded: most active species”; in test [1] (listed as pentaglycosylceramides) it was “displayed binding activity”. This compound also came in with a binding frequency in test [1] of around 90%.

For GlcNAcβ3Galβ4GlcNAcβ6GlcNAc(red)-HDA, the results for the “binding activity of neoglycolipid” value in test [1] and in test [1] (listed as GlcNAcβ3Galβ4GlcNAcβ6GlcNAc) were “strong binding activity” and “high affinity binding”, respectively.

Turning to GlcNAcβ3Galβ4GlcβCer, the “binding of Helicobacter pylori … on TLC plates” value was “not binding” in test [1] and “inactive” in test [1] (listed as triglycosylceramide).

Take Glcβ3Galβ4GlcNAcβ3Galβ4GlcβCer: the “binding of Helicobacter pylori … on TLC plates” value in test [1] was “strong binding”.

Regarding “NeuAcα3GalNAcβ3Galβ4GlcNAcβ3Galβ4Glcβ1Cer [NeuAc-x2]”, the “binding of Helicobacter pylori … on TLC plates” value in test [1] (listed as Neu5Acα3GalNAcβ3Galβ4GlcNAcβ3Galβ4GlcβCer) was “did not appear to bind”; in test [1] (listed as NeuAcα3GalNAcβ3Galβ4GlcNAcβ3Galβ4GlcβCer), “non-binding”; in test [1] (listed as no. 24) it was “complete loss of binding”. For the same compound, the “binding … (FIGS. 7A and 7B)” value in test [1] is “non-binding”.

For the compound “NeuGcα3Galβ4GlcNAcβ3Galβ4GlcNAcβ3Galβ4GlcβCer”, the “binding by Helicobacter pylori isolates” value in test [1] (about 60 isolates tested) was “bound by most Helicobacter pylori isolates”. The “binding of Helicobacter pylori … on TLC plates” value in test [1] was “weaker binding”.

“maltoheptaose(red)-HDA [reference compound]”: the “binding activity of neoglycolipid” value in test [1] was “weakly binding or inactive”.

Regarding sialyl-lactose, in test [2], the “inhibition of Helicobacter pylori binding to human gastrointestinal cell lines” value is reported as “inhibits”. Also, in test [3], the “efficacy in rhesus monkey animal model of the infection” value was “effective”.
